{"source": "patent US20220288156A1", "about": "“TREATMENT” (QUEEN MARY UNIVERSITY OF LONDON, priority 2019, published 2022)", "test_system": "cardiomyocytes", "assay": "Cardiomyocyte size assessment after angiotensin II", "format": "cell-based, mouse", "conditions": "1 μM angiotensin II vs vehicle", "protocol": "For cardiomyocyte hypertrophy assessment, 1 μM angiotensin II (Alfa Aesar, ThermoFisher Scientific) was added to cardiomyocyte growth media post serum starvation (i.e. 6 days post-culture), and this was refreshed the next day. Images of cardiomyocytes were captured using a bright field microscope at 40× magnification at 0, 24, and 48 hours post-angiotensin II treatment and analysed using ImageJ™ software."}
{"substance": "angiotensin II (DRVYIHPF; Angiotensin-2; UniProt P01019 25-32, looked up) [AngII, used to mimic the molecular stress of heart failure in cardiomyocytes]", "values": [{"measurement": "cardiomyocyte cell size", "result": "significant increase in cell size"}]}
